This is an account of results in patent US7629317B2, “Control of growth and repair of gastro-intestinal tissues by gastrokines and inhibitors” (The University of Chicago, priority 2001, dated 2009).

One experiment relates to HAE cells. Briefly: Wound restitution (migration) of scrape-wounded HAE cell monolayers. The format is cell-based, human. Here is the method: To measure growth (left panel), HAE cells were plated in 60-mm dishes. Peptide 77-97 (8 μg/ml), or EGF (50 ng/ml), or both were added to the medium and the number of cells counted 4 days later. […] Values are means±SE for 3 cultures. To measure migration (right panel), cells were grown in 60-mm dishes to prepare a confluent monolayer. The medium was aspirated and replaced with fresh medium containing 0.01% calf serum (CS). The monolayer was mechanically wounded by scraping with a razor blade. Detached cells were removed by aspirating medium, and rinsing the remaining cells twice with fresh medium containing 0.01% CS. Fresh medium (5 ml) containing CS (0.01%) and insulin (100 U/L) was added to wounded cultures. Either peptide 77-97 (8 μg/ml), EGF (50 ng/ml), or both were added to duplicate cultures. Migration was assessed at 24, 48 and 72 hr after wounding by measuring the distance (in mm) that cells had migrated from the wound edge using a microscope eyepiece reticle (10-mm long; 0.1-mm markings). Migrating cells at 12 randomly chosen sites along a 0.25-mm stretch of the wound edge were measured at 40-fold magnification. Migration at 2 different sites was measured for each of 2 separate wounds made in each culture. Values are the mean distance cells moved into the denuded area from the edge of 4 different wounds in 2 cultures±SE.
(§1) Confluent monolayer cultures were mechanically wounded by scraping with a razor blade, and the distance that cells migrated from the wound edge was measured using a microscope eyepiece reticle.

The next experiment relates to IEC-18 cells. The experiment in a line: Wound restitution (migration) of scrape-wounded IEC-18 cell monolayers. The format is cell-based, rat. Here is the method:
as §1
In a separate set of experiments DSS reduced restitution of scrape-wounded cultures of non-transformed diploid rat intestinal epithelial IEC-18 cells (P<0.001) (FIG. 29, right panel). When DSS was removed by aspirating the medium and the cultures allowed to recover for 24 hr after scrape wounding, cell migration during the next 24 hr was 40% greater in the presence of AMP peptide compared to vehicle (P<0.001).

For another experiment, the system named is IEC-6 cells. The experiment in a line: Growth of intestinal epithelial IEC-6 cells (cell count). The class given is cell-based, rat. Here is the method:
IEC-6 cells were grown in 60-mm dishes. […] Values are means±SE for 3 cultures.
(§2) To characterize the capacity of gastric and intestinal cells to respond to AMP-18, AGS gastric adenocarcinoma cells, HAE human gastric antrum mucosa primary cultures transformed with SV40 large T antigen, rat diploid small intestinal epithelial cells of the IEC-6 (FIG. 15) and IEC-18 lines, NCI N-87 gastric carcinoma cells, and SK-GT5 gastroesophageal adenocarcinoma cells were studied; human WI-38 fibroblasts and HeLa cells served as non-GI control cell lines. Mitogenesis was assayed by performing cell counts 3 to 4 days after exposing cells to the agent of interest, trypsinizing the culture to prepare single cells, and confirming this while counting them in a hemocytometer.

Another experiment deals with hsp25, hsp72. Briefly: Expression of heat shock proteins by IEC-18 cells after thermal injury (immunoblot). The class given is cell-based, rat. The note with it: 42° C. 23 min, peptide 8 μg/ml; 12 and 24 hr; listed as AMP peptide. Here is the method: FIG. 42. Effect of AMP peptide on expression of heat shock proteins by intestinal epithelial cells after thermal injury. IEC-18 cell monolayers were subjected to non-lethal heat shock injury by exposure to 42° C. for 23 min. Immediately thereafter some cultures received AMP peptide (8 μg/ml) (P on figure); control cultures (C) received vehicle. Whole cell protein was analyzed by immunoblotting. Increased expression of hsp25 and induced hsp72 is seen 12 hr after heat shock in control cultures, but constitutive expression of hsc73 is not altered. Expression of hsp25 and 72 was increased after treatment with AMP peptide compared to vehicle at 12 and 24 hr.
In an effort to identify molecules that could mediate the cytoprotective effect of AMP peptide, it was asked if exposing intestinal epithelial cells to the peptide could modify induction of heat shock proteins (hsps) (Musch et al., 1996). Diploid non-transformed rat intestinal epithelial IEC-18 cells were used to study induction of hsps in response to thermal injury rather than C2 cells—which constitutively express hsp27 and hsp72 at high levels, possibly because they are transformed. (Hsp27 is found in human C2 cells, and hsp25 in rat IEC-18 cells. Hsp72 is often referred to as hsp70). The results depicted in FIG. 42 indicate that, as expected, hsc73 and hsp25 are constitutively expressed (0 hr), but hsp72 is not. […]

Another experiment has as its system NCI N-87 cells. The experiment in a line: Growth of NCI N-87 gastric carcinoma cells. The class given is cell-based. The note with it: concentration-dependent. On the procedure: as §2
The subject of the next experiment is Staphylococcus aureus. The experiment in a line: Growth of other bacteria and fungi. The format is cell-based.
In a further experiment the test system is Acinetobacter baumanii. The experiment in a line: Growth of other bacteria and fungi. The format is cell-based.
A further experiment relates to Escherichia coli. Briefly: Growth of other bacteria and fungi. The class given is cell-based.

Values joined by “and” are separate entries in the source; they are usually repeats but may differ in a detail not shown here. Equal entries are not always repeated. “Also recorded” adds a separate entry of the source.

In the case of “LDALVKEKKLQGKGPGGPPPK [97–117, peptide 77-97 of the mature protein, same as 97-117 of the human precursor]”, the “migration from the wound edge compared with vehicle” value with HAE cells (peptide 8 μg/ml, EGF 50 ng/ml, 24-72 hr) is “migrated further”. In addition, the “migration, peptide and EGF acting together” value in the experiment with HAE cells (peptide 77-97 8 μg/ml + EGF 50 ng/ml) was “markedly enhanced migration”. Besides, in the experiment with IEC-18 cells (24 hr recovery after scrape wounding, next 24 hr, P<0.001), the “cell migration greater than vehicle after DSS removal” value was found to be 40%. In the experiment with IEC-18 cells (each time point, P<0.005), the “migration from the wound edge compared with control” value is “migrated further”. Moreover, in the experiment with IEC-6 cells, the “growth stimulation of IEC-6 cells (in words)” value was “stimulated growth in a concentration-dependent manner”. Moreover, the “concentration at near-maximal growth stimulation” value in the experiment on IEC-6 cells (FIG. 15, center panel, listed as AMP peptide) is 0.5 μg/ml and 0.23 μM. The “potency compared with EGF” value with IEC-6 cells (peptide 1 μg/ml vs EGF 50 ng/ml) is listed as “more potent than EGF”. In addition, the “expression of hsp25 and hsp72 compared to vehicle” value with hsp25, hsp72 is reported as “greater; also recorded: increased”. Moreover, the “growth of NCI N-87 cells” value in the experiment with NCI N-87 cells is recorded as “stimulated”. In the experiment on Staphylococcus aureus, the “growth of Staphylococcus aureus” value is given as “did not alter the growth”. Besides, in the experiment with Acinetobacter baumanii, the “growth of Acinetobacter baumanii” value is reported as “did not alter the growth”. Further, the “growth of Escherichia coli” value in the experiment with Escherichia coli is reported as “did not alter the growth”.
